As a reminder, the pIC50 is −log10 of the IC50, conventionally taken in molar units. As usually defined, the bioavailability is dose-corrected exposure relative to a reference, in per cent. Lower therefore signals poor availability. The term AUC denotes the area under the concentration-time curve, a measure of exposure. A higher AUC goes with high exposure. By half-life is commonly meant how long it takes for the measured level to halve. A high value points to slow decline.

Results on 32 molecules are retold here after ChEMBL document CHEMBL1148688, “4-Aryl-5-cyano-2-aminopyrimidines as VEGF-R2 inhibitors: synthesis and biological evaluation” (Bioorg Med Chem Lett, 2007).

pIC50: −log10 of the molar value.

Sequence of Cyclin-dependent kinase 1 (P06493 whole entry): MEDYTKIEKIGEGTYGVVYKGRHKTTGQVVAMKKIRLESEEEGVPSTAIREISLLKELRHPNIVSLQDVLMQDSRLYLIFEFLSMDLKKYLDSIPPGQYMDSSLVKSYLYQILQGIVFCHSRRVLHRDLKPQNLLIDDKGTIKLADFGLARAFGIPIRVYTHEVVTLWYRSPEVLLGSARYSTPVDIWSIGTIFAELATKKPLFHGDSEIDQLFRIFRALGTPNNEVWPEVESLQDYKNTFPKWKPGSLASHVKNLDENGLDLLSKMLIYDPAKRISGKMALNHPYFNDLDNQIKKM
Sequence of Vascular endothelial growth factor receptor 2 (P35968 whole entry): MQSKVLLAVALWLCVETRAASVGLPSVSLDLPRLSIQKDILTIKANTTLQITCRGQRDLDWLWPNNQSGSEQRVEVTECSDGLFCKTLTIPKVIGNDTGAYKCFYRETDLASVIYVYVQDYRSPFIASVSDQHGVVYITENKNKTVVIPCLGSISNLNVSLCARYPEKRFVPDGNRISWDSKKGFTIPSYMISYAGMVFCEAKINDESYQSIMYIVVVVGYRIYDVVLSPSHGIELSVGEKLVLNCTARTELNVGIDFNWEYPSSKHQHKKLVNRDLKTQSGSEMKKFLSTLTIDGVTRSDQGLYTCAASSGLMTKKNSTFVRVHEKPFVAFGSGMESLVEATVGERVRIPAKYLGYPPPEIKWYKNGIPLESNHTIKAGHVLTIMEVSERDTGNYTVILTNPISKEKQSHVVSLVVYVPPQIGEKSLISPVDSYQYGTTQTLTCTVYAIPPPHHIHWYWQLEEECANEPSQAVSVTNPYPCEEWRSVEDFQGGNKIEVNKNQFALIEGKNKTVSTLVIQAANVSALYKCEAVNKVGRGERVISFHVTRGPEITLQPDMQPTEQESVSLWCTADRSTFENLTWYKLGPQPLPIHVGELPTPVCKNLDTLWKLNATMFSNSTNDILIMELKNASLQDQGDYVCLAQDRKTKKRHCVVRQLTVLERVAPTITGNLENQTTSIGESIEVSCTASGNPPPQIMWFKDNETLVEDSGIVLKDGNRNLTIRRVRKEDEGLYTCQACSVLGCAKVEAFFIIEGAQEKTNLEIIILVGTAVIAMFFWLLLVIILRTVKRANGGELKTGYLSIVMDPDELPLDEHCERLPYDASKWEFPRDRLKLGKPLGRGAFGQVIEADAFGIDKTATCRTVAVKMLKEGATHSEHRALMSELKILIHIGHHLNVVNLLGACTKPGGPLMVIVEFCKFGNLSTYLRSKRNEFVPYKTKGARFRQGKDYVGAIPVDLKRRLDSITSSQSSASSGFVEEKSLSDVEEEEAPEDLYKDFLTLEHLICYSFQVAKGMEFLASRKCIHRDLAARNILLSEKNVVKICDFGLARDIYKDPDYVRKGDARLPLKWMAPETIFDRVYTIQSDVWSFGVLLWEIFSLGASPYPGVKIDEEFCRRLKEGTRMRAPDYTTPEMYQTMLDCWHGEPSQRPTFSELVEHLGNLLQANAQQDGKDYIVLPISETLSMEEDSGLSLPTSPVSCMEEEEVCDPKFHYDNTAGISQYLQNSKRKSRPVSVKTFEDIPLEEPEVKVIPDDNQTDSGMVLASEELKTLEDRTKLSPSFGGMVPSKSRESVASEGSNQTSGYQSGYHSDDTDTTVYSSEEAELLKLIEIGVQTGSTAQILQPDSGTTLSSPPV

The first series concerns the target Vascular endothelial growth factor receptor 2 (Homo sapiens, UniProt P35968). In words: Inhibition of VEGFR2 activity.
Conditions: not given; call rule not given here
`CC(C)(N)c1ccc(-c2nc(Nc3ccc(OCCN4CCOCC4)cc3)ncc2C#N)cc1` showed a negative logarithm of the IC50 (pIC50) of 6.35.
On the same count and under the same terms, next, `N#Cc1cnc(Nc2ccc(CN3CCCC3)cc2)nc1-c1ccccc1`: 7.21.
In turn, `N#Cc1cnc(Nc2cccc(CN3CCOCC3)c2)nc1-c1ccccc1` showed a pIC50 of 6.44.
`N#Cc1cnc(Nc2ccc(CCN3CCCC3)cc2)nc1-c1ccccc1`: the negative logarithm of the IC50 (pIC50) is 6.96.
The molecule `COc1ccc(Nc2ncc(C#N)c(-c3ccccc3)n2)cc1` gave a pIC50 of 6.31.
The molecule `COc1ccc(-c2nc(Nc3ccc(CCO)cc3)ncc2C#N)cc1` had a pIC50 of 6.82.
`N#Cc1cnc(Nc2ccc(CCC(=O)N3CCOCC3)cc2)nc1-c1ccccc1` showed a pIC50 of 6.74.
In the case of `N#Cc1cnc(Nc2ccc(CCO)cc2)nc1-c1cc2ccccc2[nH]1`, the negative-log IC50 (pIC50) was 5.85.
Regarding `COc1ccccc1Nc1ncc(C#N)c(-c2ccccc2)n1`, the pIC50 was < 5.00.
The same measure, in the same setting: next, `N#Cc1cnc(Nc2ccc(CCO)cc2)nc1-c1cccs1`: 7.09.
On the same count and under the same terms, next, `N#Cc1cnc(Nc2nc3ccccc3[nH]2)nc1-c1ccccc1`: 5.00; `N#Cc1cnc(Nc2ncccn2)nc1-c1ccccc1`: < 5.00; `CC(C)(N)c1ccc(-c2nc(Nc3cccc(CCN4CCOCC4)c3)ncc2C#N)cc1`: 7.26.
Regarding `N#Cc1cnc(Nc2ccc(CCO)cc2)nc1-c1ccc(S(N)(=O)=O)cc1`, the pIC50 is 6.70.
For the molecule `CCc1nccn1CCc1ccc(Nc2ncc(C#N)c(-c3ccc(C(C)(C)N)cc3)n2)cc1`, the pIC50 was 7.03.
Still for that read-out and setting: in the case of `COc1cccc(Nc2ncc(C#N)c(-c3ccccc3)n2)c1` it was 6.42.
Regarding `CC(C)(N)c1ccc(-c2nc(Nc3ccc(CCO)cc3)ncc2C#N)cc1`, the pIC50 is 7.28.
Same read-out and setting: in the case of `N#Cc1cnc(Nc2ccc(CCO)cc2)nc1-c1ccccc1` it was 6.70; in that of `N#Cc1cnc(Nc2ccccc2)nc1-c1ccccc1`, 6.00; in that of `COc1cc(Nc2ncc(C#N)c(-c3ccccc3)n2)ccc1CN1CCCC1`, 7.04.
The same measure, in the same setting: next, `CN1CCN(CCc2ccc(Nc3ncc(C#N)c(-c4ccc(C(C)(C)N)cc4)n3)cc2)CC1`: 7.68; `N#Cc1cnc(Nc2ccccc2Cl)nc1-c1ccccc1`: < 5.00.
Turning to `N#Cc1cnc(Nc2ccc(CCO)cc2)nc1-c1nc2ccccc2s1`, the negative logarithm of the IC50 (pIC50) was 6.47.
Molecule `CC(C)(N)c1ccc(-c2nc(Nc3ccc(CCN4CCOCC4)cc3)ncc2C#N)cc1` gave a pIC50 of 7.57.
The molecule `N#Cc1cnc(Nc2ccc(CCO)cc2)nc1-c1ccc2[nH]ccc2c1` had a negative logarithm of the IC50 (pIC50) of 7.05.
`Cc1cc2cc(Nc3ncc(C#N)c(-c4ccccc4)n3)ccc2[nH]1` showed a negative-log IC50 (pIC50) of 6.39.
Still for that read-out and setting: in the case of `N#Cc1cnc(Nc2ccc(CCO)cc2)nc1-c1ccc(Br)cc1` it was 6.74; in that of `CC(C)(O)c1ccc(-c2nc(Nc3ccc(CCO)cc3)ncc2C#N)cc1`, 6.39; in that of `Cc1ccc(Nc2ncc(C#N)c(-c3ccccc3)n2)cc1`, 6.00.
As for `N#Cc1cnc(Nc2ccc3ccccc3c2)nc1-c1ccccc1`, the pIC50 is 5.68.
Same read-out and setting: in the case of `CC(C)(C)c1nc(Nc2ccc(CCO)cc2)ncc1C#N` it was 5.80; in that of `N#Cc1cnc(Nc2ccc(Cl)cc2)nc1-c1ccccc1`, < 5.00.

A further series has as its target Cyclin-dependent kinase 1 (Homo sapiens, UniProt P06493). In words: Inhibition of CDK1 activity.
Conditions: not given
The molecule `CC(C)(N)c1ccc(-c2nc(Nc3ccc(OCCN4CCOCC4)cc3)ncc2C#N)cc1` had a pIC50 of 4.68.
Molecule `N#Cc1cnc(Nc2ccc(CN3CCCC3)cc2)nc1-c1ccccc1` gave a negative-log IC50 (pIC50) of 5.21.
Regarding `N#Cc1cnc(Nc2cccc(CN3CCOCC3)c2)nc1-c1ccccc1`, the negative-log IC50 (pIC50) is 5.70.
The same measure, in the same setting: next, `N#Cc1cnc(Nc2ccc(CCN3CCCC3)cc2)nc1-c1ccccc1`: 5.19; `COc1ccc(Nc2ncc(C#N)c(-c3ccccc3)n2)cc1`: 5.48; `COc1ccc(-c2nc(Nc3ccc(CCO)cc3)ncc2C#N)cc1`: 5.82.
Turning to `N#Cc1cnc(Nc2ccc(CCC(=O)N3CCOCC3)cc2)nc1-c1ccccc1`, the negative-log IC50 (pIC50) was 5.68.
Still for that read-out and setting: in the case of `N#Cc1cnc(Nc2ccc(CCO)cc2)nc1-c1cc2ccccc2[nH]1` it was 5.77; in that of `COc1ccccc1Nc1ncc(C#N)c(-c2ccccc2)n1`, < 5.00; in that of `N#Cc1cnc(Nc2ccc(CCO)cc2)nc1-c1cccs1`, 6.33.
For the molecule `N#Cc1cnc(Nc2nc3ccccc3[nH]2)nc1-c1ccccc1`, the pIC50 is < 5.00.
Take `N#Cc1cnc(Nc2ncccn2)nc1-c1ccccc1`: the negative-log IC50 (pIC50) was < 5.00.
Still for that read-out and setting: in the case of `CC(C)(N)c1ccc(-c2nc(Nc3cccc(CCN4CCOCC4)c3)ncc2C#N)cc1` it was 5.24; in that of `N#Cc1cnc(Nc2ccc(CCO)cc2)nc1-c1ccc(S(N)(=O)=O)cc1`, 5.72; in that of `CCc1nccn1CCc1ccc(Nc2ncc(C#N)c(-c3ccc(C(C)(C)N)cc3)n2)cc1`, 5.32.
`COc1cccc(Nc2ncc(C#N)c(-c3ccccc3)n2)c1` gave a negative logarithm of the IC50 (pIC50) of 5.38.
`CC(C)(N)c1ccc(-c2nc(Nc3ccc(CCO)cc3)ncc2C#N)cc1` had a pIC50 of 5.80.
`N#Cc1cnc(Nc2ccc(CCO)cc2)nc1-c1ccccc1` showed a pIC50 of 5.70.
Still for that read-out and setting: in the case of `N#Cc1cnc(Nc2ccccc2)nc1-c1ccccc1` it was < 5.00.
In turn, `COc1cc(Nc2ncc(C#N)c(-c3ccccc3)n2)ccc1CN1CCCC1` had a pIC50 of 5.05.
`CN1CCN(CCc2ccc(Nc3ncc(C#N)c(-c4ccc(C(C)(C)N)cc4)n3)cc2)CC1`: the negative logarithm of the IC50 (pIC50) is 5.25.
As for `N#Cc1cnc(Nc2ccccc2Cl)nc1-c1ccccc1`, the negative-log IC50 (pIC50) is < 5.00.
In turn, `N#Cc1cnc(Nc2ccc(CCO)cc2)nc1-c1nc2ccccc2s1` gave a negative logarithm of the IC50 (pIC50) of 6.25.
Consider `CC(C)(N)c1ccc(-c2nc(Nc3ccc(CCN4CCOCC4)cc3)ncc2C#N)cc1`, for which the pIC50 is 5.39.
Still for that read-out and setting: in the case of `N#Cc1cnc(Nc2ccc(CCO)cc2)nc1-c1ccc2[nH]ccc2c1` it was 6.39; in that of `Cc1cc2cc(Nc3ncc(C#N)c(-c4ccccc4)n3)ccc2[nH]1`, 5.48.
For the molecule `N#Cc1cnc(Nc2ccc(CCO)cc2)nc1-c1ccc(Br)cc1`, the pIC50 is 5.70.
Same read-out and setting: in the case of `CC(C)(O)c1ccc(-c2nc(Nc3ccc(CCO)cc3)ncc2C#N)cc1` it was 5.57.
Still for that read-out and setting: next, `Cc1ccc(Nc2ncc(C#N)c(-c3ccccc3)n2)cc1`: 5.46.
The same measure, in the same setting: in the case of `N#Cc1cnc(Nc2ccc3ccccc3c2)nc1-c1ccccc1` it was < 5.00; in that of `CC(C)(C)c1nc(Nc2ccc(CCO)cc2)ncc1C#N`, 5.96; in that of `N#Cc1cnc(Nc2ccc(Cl)cc2)nc1-c1ccccc1`, < 5.00.

Tested on in another series: not listed separately
In words: Oral bioavailability in nude mouse at 3 mg/kg. It counts as ADME, organism-based. The conditions noted are these: in vivo.
As to `CC(C)(N)c1ccc(-c2nc(Nc3ccc(CCN4CCOCC4)cc3)ncc2C#N)cc1`, the bioavailability is 44%.

Tested on in the next series: not listed separately
In words: Area under curve in nude mouse at 3 mg/kg. Format: ADME, organism-based. Also noted: dose 3 mg/kg. The conditions noted are these: in vivo.
`CC(C)(N)c1ccc(-c2nc(Nc3ccc(CCN4CCOCC4)cc3)ncc2C#N)cc1` came in with an area under the curve (AUC) of 15.6 µM·h.

In the next series the test system is Mus musculus. The series is described as follows: Drug level in nude mouse plasma at 100 mg/kg, po. Format: ADME, organism-based. The arrangement: dose 100 mg/kg, route oral. As to conditions: in vivo.
Molecule `CC(C)(N)c1ccc(-c2nc(Nc3ccc(CCN4CCOCC4)cc3)ncc2C#N)cc1` had a concentration of 12 µM.

Tested on in a further series: not listed separately
The series is described as follows: Half life in nude mouse at 100 mg/kg, po. The arrangement: dose 100 mg/kg, route oral. It counts as ADME, organism-based. The conditions noted are these: in vivo.
On to `CC(C)(N)c1ccc(-c2nc(Nc3ccc(CCN4CCOCC4)cc3)ncc2C#N)cc1`, for which the half-life is 420 min.

Another series deals with Mus musculus. In words: Decrease in body weight in C57BL/6 mouse at 100 to 175 mg/kg, po. As to conditions: in vivo.
For `CC(C)(N)c1ccc(-c2nc(Nc3ccc(CCN4CCOCC4)cc3)ncc2C#N)cc1`, the Activity entry is listed as “Not Active”.
